Source: PubChem BioAssay AID1745844 (Carcinogenic Potency Database (CPDB), 2022)
Calls of active or inactive are those of the source. No rule for the calls is given here.

Test system: rodent lifetime carcinogenesis bioassay, tumor incidence TD50
Assay: chronic cancer bioassays in animals – CPDB, compiled studies (AID 1745844)
Details: in feed

## NC(=O)CCCCC(N)=O
mouse, strain C57BL/6, females, site: liver, lesion: hepatocellular carcinoma, dosed 52 weeks, study length 69 weeks
  carcinogen call: negative (inactive)
mouse, strain C57BL/6, females, site: lung, lesion: alveolar/bronchiolar adenoma, dosed 52 weeks, study length 69 weeks
  TD50: 8550 mg/kg/day (inactive)
mouse, strain C57BL/6, males, site: liver, lesion: hepatocellular carcinoma, dosed 52 weeks, study length 69 weeks
  carcinogen call: negative (inactive)
mouse, strain C57BL/6, males, site: lung, lesion: alveolar/bronchiolar adenoma, dosed 52 weeks, study length 69 weeks
  carcinogen call: negative (inactive)
rat, strain Fischer 344, females, site: liver, lesion: one or several types, types not named, dosed 52 weeks, study length 69 weeks
  carcinogen call: negative (inactive)
rat, strain Fischer 344, males, site: liver, lesion: hepatocellular carcinoma, dosed 52 weeks, study length 69 weeks
  TD50: 6420 mg/kg/day

## CO[C@@H]1[C@@H](O[C@@H]2O[C@H](C)[C@@H](O[C@H]3C[C@@](C)(O)[C@@H](OC(=O)CC(C)C)[C@H](C)O3)[C@H](N(C)C)[C@H]2O)[C@@H](CC=O)C[C@@H](C)[C@@H](O)/C=C/C=C/C[C@@H](C)OC(=O)C[C@H]1OC(C)=O
rat, strain F344/DuCrj, females, site: liver, lesion: hepatocellular adenoma, dosed 104 weeks, study length 106 weeks
  carcinogen call: negative (inactive)
rat, strain F344/DuCrj, females, site: liver, lesion: one or several types, types not named, dosed 52 weeks, study length 52 weeks
  carcinogen call: negative (inactive)
rat, strain F344/DuCrj, males, site: liver, lesion: hepatocellular adenoma, dosed 104 weeks, study length 106 weeks
  carcinogen call: negative (inactive)
rat, strain F344/DuCrj, males, site: liver, lesion: hepatocellular carcinoma, dosed 104 weeks, study length 106 weeks
  TD50: 51300 mg/kg/day (inactive)
rat, strain F344/DuCrj, males, site: liver, lesion: one or several types, types not named, dosed 52 weeks, study length 52 weeks
  carcinogen call: negative (inactive)

## O=[N+]([O-])c1ccc2c3c(cccc13)CC2
hamster, strain Syrian Golden, females, site: bile duct, lesion: cholangioma, dosed 26 weeks, study length 71 weeks
  TD50: 354 mg/kg/day
mouse, strain B6C3F1, females, site: any site (literature study), lesion: several types, types named in the paper, dosed 78 weeks, study length 96 weeks
  TD50: 90.4 mg/kg/day
mouse, strain B6C3F1, females, site: liver + ovary, lesion: hepatocellular carcinoma + granulosa-cell tumor + luteoma + tubular adenoma, dosed 78 weeks, study length 96 weeks
  TD50: 45.3 mg/kg/day
mouse, strain B6C3F1, females, site: liver, lesion: hepatocellular adenoma + hepatocellular carcinoma + neoplastic nodule, dosed 78 weeks, study length 96 weeks
  TD50: 45.8 mg/kg/day
mouse, strain B6C3F1, females, site: liver, lesion: hepatocellular carcinoma, dosed 78 weeks, study length 96 weeks
  TD50: 45.8 mg/kg/day
mouse, strain B6C3F1, females, site: lung, lesion: alveolar/bronchiolar adenoma + alveolar/bronchiolar carcinoma, dosed 78 weeks, study length 96 weeks
  TD50: 1320 mg/kg/day
mouse, strain B6C3F1, females, site: ovary, lesion: granulosa-cell tumor + luteoma + tubular adenoma, dosed 78 weeks, study length 96 weeks
  TD50: 217 mg/kg/day
mouse, strain B6C3F1, females, site: ovary, lesion: tubular adenoma, dosed 78 weeks, study length 96 weeks
  TD50: 395 mg/kg/day
mouse, strain B6C3F1, males, site: any site (literature study), lesion: several types, types named in the paper, dosed 78 weeks, study length 95 weeks
  carcinogen call: negative (inactive)
rat, strain Fischer 344, females, site: any site (literature study), lesion: several types, types named in the paper, dosed 78 weeks, study length 101 weeks
  TD50: 6.44 mg/kg/day
rat, strain Fischer 344, females, site: clitoral gland + ear canal + lung + mammary gland, lesion: carcinoma, NOS + carcinosarcoma + ceruminous carcinoma + squamous-cell carcinoma + alveolar/bronchiolar adenoma + alveolar/bronchi, dosed 78 weeks, study length 101 weeks
  TD50: 5.98 mg/kg/day
rat, strain Fischer 344, females, site: clitoral gland, lesion: carcinoma, NOS, dosed 78 weeks, study length 101 weeks
  TD50: 52.2 mg/kg/day
rat, strain Fischer 344, females, site: ear canal, lesion: carcinosarcoma + ceruminous carcinoma + squamous-cell carcinoma, dosed 78 weeks, study length 101 weeks
  TD50: 14.9 mg/kg/day
rat, strain Fischer 344, females, site: ear canal, lesion: ceruminous carcinoma, dosed 78 weeks, study length 101 weeks
  TD50: 17.4 mg/kg/day
rat, strain Fischer 344, females, site: ear canal, lesion: squamous-cell carcinoma, dosed 78 weeks, study length 101 weeks
  TD50: 90.5 mg/kg/day
rat, strain Fischer 344, females, site: lung, lesion: alveolar/bronchiolar adenoma + alveolar/bronchiolar carcinoma, dosed 78 weeks, study length 101 weeks
  TD50: 9.63 mg/kg/day
rat, strain Fischer 344, females, site: mammary gland, lesion: adenocarcinoma, NOS + papillary cystadenocarcinoma, NOS, dosed 78 weeks, study length 101 weeks
  TD50: 77.9 mg/kg/day
rat, strain Fischer 344, females, site: mammary gland, lesion: adenocarcinoma, NOS, dosed 78 weeks, study length 101 weeks
  TD50: 81.7 mg/kg/day
rat, strain Fischer 344, males, site: any site (literature study), lesion: several types, types named in the paper, dosed 74 weeks, study length 101 weeks
  TD50: 5.58 mg/kg/day
rat, strain Fischer 344, males, site: ear canal + lung, lesion: ceruminous carcinoma + squamous-cell carcinoma + alveolar/bronchiolar adenoma + alveolar/bronchiolar carcinoma, dosed 74 weeks, study length 101 weeks
  TD50: 6.45 mg/kg/day
rat, strain Fischer 344, males, site: ear canal, lesion: ceruminous carcinoma + squamous-cell carcinoma, dosed 74 weeks, study length 101 weeks
  TD50: 7.88 mg/kg/day
rat, strain Fischer 344, males, site: ear canal, lesion: ceruminous carcinoma, dosed 74 weeks, study length 101 weeks
  TD50: 8.92 mg/kg/day
rat, strain Fischer 344, males, site: ear canal, lesion: squamous-cell carcinoma, dosed 74 weeks, study length 101 weeks
  TD50: 68.2 mg/kg/day
rat, strain Fischer 344, males, site: kidney, lesion: tubular-cell adenoma + tubular-cell adenocarcinoma, dosed 74 weeks, study length 101 weeks
  TD50: 42.9 mg/kg/day
rat, strain Fischer 344, males, site: liver, lesion: hepatocellular adenoma + hepatocellular carcinoma + neoplastic nodule, dosed 74 weeks, study length 101 weeks
  TD50: 71.4 mg/kg/day
rat, strain Fischer 344, males, site: lung, lesion: alveolar/bronchiolar adenoma + alveolar/bronchiolar carcinoma, dosed 74 weeks, study length 101 weeks
  TD50: 29.9 mg/kg/day
rat, strain Fischer 344, males, site: lung, lesion: alveolar/bronchiolar carcinoma, dosed 74 weeks, study length 101 weeks
  TD50: 35.1 mg/kg/day
rat, strain Fischer 344, males, site: thyroid gland, lesion: follicular-cell adenoma + papillary adenoma, dosed 74 weeks, study length 101 weeks
  TD50: 58.5 mg/kg/day
rat, strain Fischer 344, males, site: thyroid gland, lesion: follicular-cell carcinoma + papillary adenocarcinoma, dosed 74 weeks, study length 101 weeks
  TD50: 37.7 mg/kg/day

## O=[N+]([O-])c1ccc(NCCO)c(OCCO)c1
mouse, strain B6C3F1, females, site: any site (literature study), lesion: several types, types named in the paper, dosed 103 weeks, study length 104 weeks
  carcinogen call: negative (inactive)
mouse, strain B6C3F1, males, site: any site (literature study), lesion: several types, types named in the paper, dosed 103 weeks, study length 104 weeks
  carcinogen call: negative (inactive)
rat, strain Fischer 344, females, site: any site (literature study), lesion: several types, types named in the paper, dosed 103 weeks, study length 104 weeks
  carcinogen call: negative (inactive)
rat, strain Fischer 344, males, site: pituitary gland, lesion: pars distalis adenoma, dosed 103 weeks, study length 104 weeks
  TD50: 465 mg/kg/day

## Cc1cccn2c1nc1ccc(N)nc12
mouse, strain CDF1, females, site: blood vessels, lesion: hemangioendothelial sarcoma, dosed 67 weeks, study length 67 weeks
  TD50: 13.8 mg/kg/day
mouse, strain CDF1, females, site: blood vessels, lesion: several types, types named in the paper, dosed 67 weeks, study length 67 weeks
  TD50: 10.9 mg/kg/day
mouse, strain CDF1, females, site: liver, lesion: hepatocellular adenoma, dosed 67 weeks, study length 67 weeks
  TD50: 44.1 mg/kg/day
mouse, strain CDF1, females, site: liver, lesion: hepatocellular carcinoma, dosed 67 weeks, study length 67 weeks
  TD50: 18.5 mg/kg/day
mouse, strain CDF1, females, site: liver, lesion: several types, types named in the paper, dosed 67 weeks, study length 67 weeks
  TD50: 5.08 mg/kg/day
mouse, strain CDF1, females, site: lung, lesion: adenoma, dosed 67 weeks, study length 67 weeks
  TD50: 166 mg/kg/day
mouse, strain CDF1, females, site: lung, lesion: several types, types named in the paper, dosed 67 weeks, study length 67 weeks
  TD50: 308 mg/kg/day
mouse, strain CDF1, males, site: blood vessels, lesion: hemangioendothelial sarcoma, dosed 57 weeks, study length 57 weeks
  TD50: 7.81 mg/kg/day
mouse, strain CDF1, males, site: blood vessels, lesion: hemangioendothelioma, dosed 57 weeks, study length 57 weeks
  TD50: 98.7 mg/kg/day
mouse, strain CDF1, males, site: blood vessels, lesion: several types, types named in the paper, dosed 57 weeks, study length 57 weeks
  TD50: 5.77 mg/kg/day
mouse, strain CDF1, males, site: liver, lesion: hepatocellular adenoma, dosed 57 weeks, study length 57 weeks
  TD50: 98.7 mg/kg/day
mouse, strain CDF1, males, site: lung, lesion: adenoma, dosed 57 weeks, study length 57 weeks
  TD50: 1000 mg/kg/day
rat, strain F344/DuCrj, females, site: Zymbal's gland, lesion: squamous-cell carcinoma, dosed 67 weeks, study length 67 weeks
  TD50: 12.7 mg/kg/day
rat, strain F344/DuCrj, females, site: brain, lesion: astrocytoma, dosed 67 weeks, study length 67 weeks
  TD50: 95.9 mg/kg/day
rat, strain F344/DuCrj, females, site: clitoral gland, lesion: one or several types, types not named, dosed 67 weeks, study length 67 weeks
  TD50: 56.1 mg/kg/day
rat, strain F344/DuCrj, females, site: colon, lesion: adenocarcinoma, dosed 67 weeks, study length 67 weeks
  TD50: 95.9 mg/kg/day
rat, strain F344/DuCrj, females, site: colon, lesion: adenoma, dosed 67 weeks, study length 67 weeks
  TD50: 71 mg/kg/day
rat, strain F344/DuCrj, females, site: colon, lesion: several types, types named in the paper, dosed 67 weeks, study length 67 weeks
  TD50: 39 mg/kg/day
rat, strain F344/DuCrj, females, site: liver, lesion: several types, types named in the paper, dosed 67 weeks, study length 67 weeks
  TD50: 8.39 mg/kg/day
rat, strain F344/DuCrj, females, site: small intestine, lesion: adenocarcinoma, dosed 67 weeks, study length 67 weeks
  TD50: 56.1 mg/kg/day
rat, strain F344/DuCrj, females, site: small intestine, lesion: adenoma, dosed 67 weeks, study length 67 weeks
  TD50: 146 mg/kg/day
rat, strain F344/DuCrj, females, site: small intestine, lesion: mucinous carcinoma, dosed 67 weeks, study length 67 weeks
  TD50: 71 mg/kg/day
rat, strain F344/DuCrj, females, site: small intestine, lesion: several types, types named in the paper, dosed 67 weeks, study length 67 weeks
  TD50: 26.1 mg/kg/day
rat, strain F344/DuCrj, males, site: Zymbal's gland, lesion: squamous-cell carcinoma, dosed 67 weeks, study length 67 weeks
  TD50: 10.2 mg/kg/day
rat, strain F344/DuCrj, males, site: colon, lesion: adenocarcinoma, dosed 67 weeks, study length 67 weeks
  TD50: 16.9 mg/kg/day
rat, strain F344/DuCrj, males, site: colon, lesion: adenoma, dosed 67 weeks, study length 67 weeks
  TD50: 15.4 mg/kg/day
rat, strain F344/DuCrj, males, site: colon, lesion: several types, types named in the paper, dosed 67 weeks, study length 67 weeks
  TD50: 9.45 mg/kg/day
rat, strain F344/DuCrj, males, site: liver, lesion: several types, types named in the paper, dosed 67 weeks, study length 67 weeks
  TD50: 3.25 mg/kg/day
rat, strain F344/DuCrj, males, site: small intestine, lesion: adenocarcinoma, dosed 67 weeks, study length 67 weeks
  TD50: 6.71 mg/kg/day
rat, strain F344/DuCrj, males, site: small intestine, lesion: adenoma, dosed 67 weeks, study length 67 weeks
  TD50: 8.21 mg/kg/day
rat, strain F344/DuCrj, males, site: small intestine, lesion: mucinous carcinoma, dosed 67 weeks, study length 67 weeks
  TD50: 236 mg/kg/day
rat, strain F344/DuCrj, males, site: small intestine, lesion: several types, types named in the paper, dosed 67 weeks, study length 67 weeks
  TD50: 5.89 mg/kg/day
